Laboratory results as given in patent publication US6706663B2, “Herbicidal 3-heterocyclic substituted benzisothiazole and benzisoxazole compounds” (Wyeth, priority 2000, dated 2004).

What was measured:
[1] = test system: ZEAMX (Corn, Field); assay: Postemergence herbicidal evaluation; assay type: in vivo, Zea mays, L.
Outline: (§1)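 Visual 0–9 injury scores versus control plants, covering stand, vigour, malformation, size, chlorosis and general appearance, taken four to five weeks post-spray and averaged over replicate tests. Plants were sprayed at roughly two weeks old and held on greenhouse benches.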

[2] = test system: GLXMAW (Soybean, Williams); assay: Preemergence herbicidal evaluation; assay type: in vivo, Glycine max, (L.) Merr. cv Williams; conditions: preemergence, rated 4-5 weeks after treatment
[3] = test system: SETVI (Setaria viridis); assay: Postemergence herbicidal evaluation; assay type: in vivo, (L.) Beau
Outline: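 First, seedlings are raised in flats for about two weeks. Next, compound dispersed in 50/50 acetone/water with 0.5% TWEEN 20 is sprayed at 40 psi to deliver about 0.0040–1.000 kg/ha. Plants are then maintained in the greenhouse and rated 0-9 after four to five weeks.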

[4] = test system: IPOHE (Ipomoea hederacea); assay: Postemergence herbicidal evaluation; assay type: in vivo, (L.) Jacq.
Outline: as §1

[5] = test system: ECHCG (Echinochloa crus-galli); assay: Postemergence herbicidal evaluation; assay type: in vivo, (L.) Beau
Outline: as §1

[6] = test system: GALAP (Galium aparine); assay: Preemergence herbicidal evaluation; assay type: in vivo; conditions: preemergence, rated 4-5 weeks after treatment
Outline: (§2)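 Preemergence soil spray, aq. acetone; greenhouse; visual 0–9 score vs control at 4–5 wk.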

[7] = test system: TRZAWR (Wheat, Winter, cv Riband); assay: Preemergence herbicidal evaluation; assay type: in vivo, Triticum aestivum; conditions: preemergence, rated 4-5 weeks after treatment
Outline: as §2

[8] = test system: MOOVA (Monochoria vaginalis); assay: Flooded paddy, preemergence weed control; assay type: in vivo, Presl.; conditions: rate 0.1250 kg/ha, rated 3-4 weeks after treatment, 0-9 rating scale
Outline: (§3)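 In this preemergence paddy assay, weed seeds or organs are sown at up to 0.5 cm in silt loam and covered by 1.5–3 cm of water for the full test period. After treatment the pots are kept in a greenhouse, and herbicidal effect is rated 0-9 visually against a control.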

[9] = test system: AMBEL (Ambrosia artemisifolia); assay: Preemergence herbicidal evaluation; assay type: in vivo, L.; conditions: preemergence, rated 4-5 weeks after treatment
Outline: as §2

[10] = test system: CASOB (Cassia obtusifolia); assay: Preemergence herbicidal evaluation; assay type: in vivo, L.; conditions: preemergence, rated 4-5 weeks after treatment
Outline: as §2

[11] = test system: CHEAL (Chenopodium album); assay: Preemergence herbicidal evaluation; assay type: in vivo, L.; conditions: preemergence, rated 4-5 weeks after treatment
Outline: as §2

[12] = test system: CYPIR (Cyperus iria); assay: Flooded paddy, preemergence weed control; assay type: in vivo; conditions: rate 0.1250 kg/ha, rated 3-4 weeks after treatment, 0-9 rating scale
Outline: as §3

[13] = test system: CYPSE (Cyperus serotinus); assay: Flooded paddy, preemergence weed control; assay type: in vivo, Rottb.; conditions: rate 0.1250 kg/ha, rated 3-4 weeks after treatment, 0-9 rating scale
Experimental: Results of herbicide evaluation are expressed on a rating scale (0-9). The scale is based upon a visual observation of plant stand, vigor, malformation, size, chlorosis and overall plant appearance as compared with a control.
Preemergence herbicidal activity under flooded paddy conditions is determined as follows: plant seeds or propagating organs are planted in the top 0.5 cm of silt loam soil in 32 oz. plastic containers with a diameter of 10.5 cm and no drainage holes. Water is added to these containers and maintained at 1.5 to 3 cm above the soil surface for the duration of the experiment. The test compounds are applied as aqueous/acetone mixtures 50/50 v/v pipetted directly into the flood water to give the equivalent of about 0.0080 to 0.1250 kg/ha of active ingredient. The treated containers are placed on greenhouse benches and cared for in accordance with conventional greenhouse procedures. Three to four weeks after treatment, the test is terminated and each container is examined and herbicidal effect rated according to the rating system provided in Example 87.

[14] = test system: TRZAWR (Wheat, Winter, cv Riband); assay: Postemergence herbicidal evaluation; assay type: in vivo, Triticum aestivum
Outline: as §1

[15] = test system: SAGPY (Sagittaria pygmaea); assay: Flooded paddy, preemergence weed control; assay type: in vivo, L.; conditions: rate 0.1250 kg/ha, rated 3-4 weeks after treatment, 0-9 rating scale
Outline: as §3

[16] = test system: ORYSAT (Rice, Tebonnet); assay: Preemergence herbicidal evaluation; assay type: in vivo, Oryza sativa, (L.) Tebonnet; conditions: preemergence, rated 4-5 weeks after treatment
[17] = test system: GALAP (Galium aparine); assay: Postemergence herbicidal evaluation; assay type: in vivo
Outline: as §1

[18] = test system: IPOHE (Ipomoea hederacea); assay: Preemergence herbicidal evaluation; assay type: in vivo, (L.) Jacq.; conditions: preemergence, rated 4-5 weeks after treatment
[19] = test system: ORYSAT (Rice, Tebonnet); assay: Postemergence herbicidal evaluation; assay type: in vivo, Oryza sativa, (L.) Tebonnet
Outline: as §1

[20] = test system: ECHCG (Echinochloa crus-galli); assay: Preemergence herbicidal evaluation; assay type: in vivo, (L.) Beau; conditions: preemergence, rated 4-5 weeks after treatment
Outline: as §2

[21] = test system: SETVI (Setaria viridis); assay: Preemergence herbicidal evaluation; assay type: in vivo, (L.) Beau; conditions: preemergence, rated 4-5 weeks after treatment
Outline: as §2

[22] = test system: GLXMAW (Soybean, Williams); assay: Postemergence herbicidal evaluation; assay type: in vivo, Glycine max, (L.) Merr. cv Williams
Outline: as §1

[23] = test system: ZEAMX (Corn, Field); assay: Preemergence herbicidal evaluation; assay type: in vivo, Zea mays, L.; conditions: preemergence, rated 4-5 weeks after treatment
[24] = test system: ABUTH (Abutilon theophrasti); assay: Preemergence herbicidal evaluation; assay type: in vivo, Medic.; conditions: preemergence, rated 4-5 weeks after treatment
[25] = test system: ORYSAT (Rice, Tebonnet); assay: Flooded paddy, post-transplant rice tolerance; assay type: in vivo, Oryza sativa, (L.) Tebonnet; conditions: flooded paddy, post-transplant rice; rate 0.1250 kg/ha; rated 3-4 weeks after treatment; 0-9 rating scale
Outline: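 Ten-day-old seedlings, 2/pot, silt loam; flood kept 1.5–3 cm over soil; herbicide applied post-transplant; greenhouse; score 0–9 visual vs control.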

[26] = test system: ABUTH (Abutilon theophrasti); assay: Postemergence herbicidal evaluation; assay type: in vivo, Medic.
Outline: as §1

[27] = test system: ECHORC (Echinochloa oryzoides); assay: Flooded paddy, preemergence weed control; assay type: in vivo, Echinochloa oryzoides (Ard.) Fritsch.; conditions: rate 0.1250 kg/ha, rated 3-4 weeks after treatment, 0-9 rating scale
Outline: as §3

[28] = test system: AMBEL (Ambrosia artemisifolia); assay: Postemergence herbicidal evaluation; assay type: in vivo, L.
Outline: as §1

[29] = test system: CASOB (Cassia obtusifolia); assay: Postemergence herbicidal evaluation; assay type: in vivo, L.
Outline: as §1

[30] = test system: CHEAL (Chenopodium album); assay: Postemergence herbicidal evaluation; assay type: in vivo, L.
Outline: as §1

## C[C@H]1O[C@@H]1c1nsc2ccc(-n3c(=O)cc(C(F)(F)F)n(C)c3=O)cc12 [Compound 14, 3-[3-[(1R,2R)-1,2-epoxypropyl]-1,2-benzisothiazol-5-yl]-1-methyl-6-(trifluoromethyl)uracil]
[1]; rate 0.0620 kg/ha
  Postemergence herbicidal rating, ZEAMX: 6.0
[2]; Rate 0.2500 kg/ha
  GLXMAW preemergence herbicidal rating: 8.0
[3]; rate 0.0620 kg/ha
  Postemergence herbicidal rating, SETVI: 3.0
[4]; rate 0.0620 kg/ha
  Postemergence herbicidal rating, IPOHE: 9.0
[5]; rate 0.0620 kg/ha
  Postemergence herbicidal rating, ECHCG: 2.0
[6]; Rate 0.2500 kg/ha
  GALAP preemergence herbicidal rating: 9.0
[7]; Rate 0.2500 kg/ha
  TRZAWR preemergence herbicidal rating: 9.0
[8]
  herbicidal rating, MOOVA: 9.0
[9]; Rate 0.2500 kg/ha
  AMBEL preemergence herbicidal rating: 9.0
[10]; Rate 0.2500 kg/ha
  CASOB preemergence herbicidal rating: 9.0
[11]; Rate 0.2500 kg/ha
  CHEAL preemergence herbicidal rating: 9.0
[12]
  herbicidal rating, CYPIR: 9.0
[13]
  herbicidal rating, CYPSE: 8.0
[14]; rate 0.0620 kg/ha
  Postemergence herbicidal rating, TRZAWR: 6.5
[15]
  herbicidal rating, SAGPY: 9.0
[16]; Rate 0.2500 kg/ha
  ORYSAT preemergence herbicidal rating: 9.0
[17]; rate 0.0620 kg/ha
  Postemergence herbicidal rating, GALAP: 9.0
[18]; Rate 0.2500 kg/ha
  IPOHE preemergence herbicidal rating: 9.0
[19]; rate 0.0620 kg/ha
  Postemergence herbicidal rating, ORYSAT: 6.0
[20]; Rate 0.2500 kg/ha
  ECHCG preemergence herbicidal rating: 9.0
[21]; Rate 0.2500 kg/ha
  SETVI preemergence herbicidal rating: 9.0
[22]; rate 0.0620 kg/ha
  Postemergence herbicidal rating, GLXMAW: 7.5
[23]; Rate 0.2500 kg/ha
  ZEAMX preemergence herbicidal rating: 8.5
[24]; Rate 0.2500 kg/ha
  ABUTH preemergence herbicidal rating: 9.0
[25]
  herbicidal rating, ORYSAT (rice tolerance): 9.0
[26]; rate 0.0620 kg/ha
  Postemergence herbicidal rating, ABUTH: 9.0
[27]
  herbicidal rating, ECHORC: 8.0
[28]; rate 0.0620 kg/ha
  Postemergence herbicidal rating, AMBEL: 9.0
[29]; rate 0.0620 kg/ha
  Postemergence herbicidal rating, CASOB: 2.0
[30]; rate 0.0620 kg/ha
  Postemergence herbicidal rating, CHEAL: 8.0

## Cc1nnc(-c2nsc3ccc(-n4c(=O)cc(C(F)(F)F)n(C)c4=O)cc23)o1 [Compound 16, 1-methyl-3-[3-(5-methyl-1,3,4-oxadiazol-2-yl)-1,2-benzisothiazol-5-yl]-6-(trifluoromethyl)uracil]
[1]; rate 0.1250 kg/ha
  Postemergence herbicidal rating, ZEAMX: 4.3
[2]; Rate 0.2500 kg/ha
  GLXMAW preemergence herbicidal rating: 7.5
[3]; rate 0.1250 kg/ha
  Postemergence herbicidal rating, SETVI: 4.5
[4]; rate 0.1250 kg/ha
  Postemergence herbicidal rating, IPOHE: 4.5
[5]; rate 0.1250 kg/ha
  Postemergence herbicidal rating, ECHCG: 1.5
[6]; Rate 0.2500 kg/ha
  GALAP preemergence herbicidal rating: 7.0
[7]; Rate 0.2500 kg/ha
  TRZAWR preemergence herbicidal rating: 7.0
[8]
  herbicidal rating, MOOVA: 9.0
[9]; Rate 0.2500 kg/ha
  AMBEL preemergence herbicidal rating: 9.0
[10]; Rate 0.2500 kg/ha
  CASOB preemergence herbicidal rating: 9.0
[11]; Rate 0.2500 kg/ha
  CHEAL preemergence herbicidal rating: 9.0
[12]
  herbicidal rating, CYPIR: 8.5
[13]
  herbicidal rating, CYPSE: 6.0
[14]; rate 0.1250 kg/ha
  Postemergence herbicidal rating, TRZAWR: 3.0
[15]
  herbicidal rating, SAGPY: 4.5
[16]; Rate 0.2500 kg/ha
  ORYSAT preemergence herbicidal rating: 7.0
[17]; rate 0.1250 kg/ha
  Postemergence herbicidal rating, GALAP: 3.0
[18]; Rate 0.2500 kg/ha
  IPOHE preemergence herbicidal rating: 9.0
[19]; rate 0.1250 kg/ha
  Postemergence herbicidal rating, ORYSAT: 3.0
[20]; Rate 0.2500 kg/ha
  ECHCG preemergence herbicidal rating: 9.0
[21]; Rate 0.2500 kg/ha
  SETVI preemergence herbicidal rating: 9.0
[22]; rate 0.1250 kg/ha
  Postemergence herbicidal rating, GLXMAW: 5.8
[23]; Rate 0.2500 kg/ha
  ZEAMX preemergence herbicidal rating: 7.5
[24]; Rate 0.2500 kg/ha
  ABUTH preemergence herbicidal rating: 9.0
[25]
  herbicidal rating, ORYSAT (rice tolerance): 5.5
[26]; rate 0.1250 kg/ha
  Postemergence herbicidal rating, ABUTH: 4.5
[27]
  herbicidal rating, ECHORC: 8.0
[28]; rate 0.1250 kg/ha
  Postemergence herbicidal rating, AMBEL: 4.5
[29]; rate 0.1250 kg/ha
  Postemergence herbicidal rating, CASOB: 3.5
[30]; rate 0.1250 kg/ha
  Postemergence herbicidal rating, CHEAL: 3.5

## Cn1c(C(F)(F)F)cc(=O)n(-c2cc3c(-c4ccccn4)nsc3cc2F)c1=O [Compound 25, 3-[6-fluoro-3-(2-pyridyl)-1,2-benzisothiazol-5-yl]-1-methyl-6-(trifluoromethyl)uracil]
[1]; rate 0.0620 kg/ha
  Postemergence herbicidal rating, ZEAMX: 7.0
[2]; Rate 0.1250 kg/ha
  GLXMAW preemergence herbicidal rating: 7.0
[3]; rate 0.0620 kg/ha
  Postemergence herbicidal rating, SETVI: 9.0
[4]; rate 0.0620 kg/ha
  Postemergence herbicidal rating, IPOHE: 9.0
[5]; rate 0.0620 kg/ha
  Postemergence herbicidal rating, ECHCG: 3.0
[6]; Rate 0.1250 kg/ha
  GALAP preemergence herbicidal rating: 5.0
[7]; Rate 0.1250 kg/ha
  TRZAWR preemergence herbicidal rating: 9.0
[8]
  herbicidal rating, MOOVA: 9.0
[9]; Rate 0.1250 kg/ha
  AMBEL preemergence herbicidal rating: 9.0
[10]; Rate 0.1250 kg/ha
  CASOB preemergence herbicidal rating: 9.0
[11]; Rate 0.1250 kg/ha
  CHEAL preemergence herbicidal rating: 9.0
[12]
  herbicidal rating, CYPIR: 9.0
[13]
  herbicidal rating, CYPSE: 9.0
[14]; rate 0.0620 kg/ha
  Postemergence herbicidal rating, TRZAWR: 4.5
[15]
  herbicidal rating, SAGPY: 9.0
[16]; Rate 0.1250 kg/ha
  ORYSAT preemergence herbicidal rating: 9.0
[17]; rate 0.0620 kg/ha
  Postemergence herbicidal rating, GALAP: 4.0
[18]; Rate 0.1250 kg/ha
  IPOHE preemergence herbicidal rating: 9.0
[19]; rate 0.0620 kg/ha
  Postemergence herbicidal rating, ORYSAT: 3.0
[20]; Rate 0.1250 kg/ha
  ECHCG preemergence herbicidal rating: 9.0
[21]; Rate 0.1250 kg/ha
  SETVI preemergence herbicidal rating: 9.0
[22]; rate 0.0620 kg/ha
  Postemergence herbicidal rating, GLXMAW: 9.0
[23]; Rate 0.1250 kg/ha
  ZEAMX preemergence herbicidal rating: 8.0
[24]; Rate 0.1250 kg/ha
  ABUTH preemergence herbicidal rating: 9.0
[25]
  herbicidal rating, ORYSAT (rice tolerance): 9.0
[26]; rate 0.0620 kg/ha
  Postemergence herbicidal rating, ABUTH: 9.0
[27]
  herbicidal rating, ECHORC: 9.0
[28]; rate 0.0620 kg/ha
  Postemergence herbicidal rating, AMBEL: 9.0
[29]; rate 0.0620 kg/ha
  Postemergence herbicidal rating, CASOB: 9.0
[30]; rate 0.0620 kg/ha
  Postemergence herbicidal rating, CHEAL: 9.0
